Reference: patent publication US6509373B1, “Strain of streptomyces, and relevant uses thereof” (Development Center for Biotechnology, priority 1998, dated 2003)
Values after ≈ are worked out from the molar mass of the structure shown.

What was measured:
Assay in all cases: Antifungal activity of isolated borrelidin in vitro
P. ultimum = type: cell-based, Pythium ultimum; conditions: Globisporangium ultimum
Method: (§1) 1. The antifungal activity of the isolated borrelidin was tested against P. aphanidermatum, P. splendens, P. sylvaticum, P. capsici and Phytophthora ultimum in vitro.
(§2) 2. The isolated borrelidin was dissolved in methanol. Pasteurized, molten PDA (50 ml) was allowed to cool to 50° C. and mixed with 0.1 ml of borrelidin in methanol. Each fungal strain was tested at a specific concentration (max. 0.2 mg/l), or diluted concentration. A series of five concentrations was used to determine EC50 (the concentration at which 50% fungal growth is inhibited).
(§3) 3. PDA medium (50 ml) was mixed with 0.1 ml of borrelidin in methanol.
(§4) 4. The pathogenic fungi (2 mm mass) were inoculated. A microtitration plate added with methanol was used as control. The inhibition (%) was calculated when the control was fully covered with fungal mass, and EC50 was determined.

P. splendens = type: cell-based, Pythium splendens; conditions: Globisporangium splendens
Method: as §1, §2, §3, §4

P. capsici = type: cell-based; conditions: Phytophthora capsici
Method: as §1, §2, §3, §4

P. aphanidermatum = type: cell-based; conditions: Pythium aphanidermatum
Method: as §1, §2, §3, §4

P. sylvaticum = type: cell-based, Pythium sylvaticum; conditions: Globisporangium sylvaticum
Method: as §1, §2, §3, §4

[1] = 0.025 mg/l in PDA, read-out: Growth Inhibition (%)
[2] = 0.05 mg/l in PDA, read-out: Growth Inhibition (%)
[3] = 0.2 mg/l in PDA, read-out: Growth Inhibition (%)
[4] = concentration at which 50% fungal growth is inhibited

CC1CC(C)CC(C)C(O)/C(C#N)=C\C=C\CC(C2CCCC2C(=O)O)OC(=O)CC(O)C(C)C1 (centres unmarked) [borrelidin, 2-[7-cyano-8,16-dihydro-9,11,13,15-tetramethyl-18-oxooxacyclooctadeca-4,6(E, Z)-diene-2-yl]cyclopentacarboxylic acid]
inhibition at 0.025 µg/mL (P. ultimum; [1]): 0% | inhibition at 0.05 µg/mL (P. ultimum; [2]): 17% | inhibition at 0.2 µg/mL (P. ultimum; [3]): 83% | EC50 (P. ultimum; [4]): 0.1 µg/mL (≈ 0.204 µM) | inhibition at 0.025 µg/mL (P. splendens; [1]): 36% | inhibition at 0.05 µg/mL (P. splendens; [2]): 70% | inhibition at 0.2 µg/mL (P. splendens; [3]): 99% | EC50 (P. splendens; [4]): 0.03 µg/mL (≈ 0.0613 µM) | inhibition at 0.025 µg/mL (P. capsici; [1]): 41% | inhibition at 0.05 µg/mL (P. capsici; [2]): 70% | inhibition at 0.2 µg/mL (P. capsici; [3]): 92% | EC50 (P. capsici; [4]): 0.027 µg/mL (≈ 0.0551 µM) | inhibition at 0.025 µg/mL (P. aphanidermatum; [1]): 14% | inhibition at 0.05 µg/mL (P. aphanidermatum; [2]): 45% | inhibition at 0.2 µg/mL (P. aphanidermatum; [3]): 99% | EC50 (P. aphanidermatum; [4]): 0.06 µg/mL (≈ 0.123 µM) | inhibition at 0.025 µg/mL (P. sylvaticum; [1]): 80% | inhibition at 0.05 µg/mL (P. sylvaticum; [2]): 99% | inhibition at 0.2 µg/mL (P. sylvaticum; [3]): 100% | EC50 (P. sylvaticum; [4]): 0.01 µg/mL (≈ 0.0204 µM)
